Values of other authors in US11033613B2, “Methods and compositions for treating cancer” (Memorial Sloan Kettering Cancer Center, priority 2015, dated 2021).

System: CD4+ and CD8+ responses
Details: according to data from preclinical and phase 1 studies

In the case of SGQAYMFPNAPYLPSCLES [WT1-122A1 long], the “stimulation of CD4+ and CD8+ responses” value is listed as “stimulate both CD4+ and CD8+ responses”.
